Test results as given in patent US11939307B2, “Phenylmethyl-piperazine derivatives and antiviral uses thereof” (INSTITUTE OF MEDICINAL BIOTECHNOLOGY, CHINESE ACADEMY OF …, priority 2019, dated 2024).
Like-named read-outs stand apart in the source and are kept apart here.

Test system: HCV
Experiment: Assay of anti-HCV activity in HCV-infected Huh7.5 cells (intracellular HCV RNA by one-step quantitative RT-PCR)
Format: cell-based
Conditions: Hepatitis C virus, read-out: inhibitory activities (inhibitory levels of the compounds against HCV replication)
Protocol: 100 μL Huh7.5 cells were seeded at a density of 1×10^5/mL in a 96-well cell culture plate and incubated in an incubator at 37° C., 5% CO2 and saturated humidity for 6 hrs. Then, while infecting Huh7.5 cells with viral solution containing HCV virus particles, the compounds of the present invention (including all specific compounds listed herein) were added at a concentration of 1 μM, respectively. After continuing incubation for 96 hrs, the total intracellular RNA was extracted separately, and the content of intracellular HCV RNA was measured by one-step quantitative RT-PCR, compared with the RNA level of the viral control, and the inhibition rate of the compounds against HCV was calculated.

[1] = compound at 1 μM, Huh7.5 cells infected with HCV, 96 hrs, intracellular HCV RNA vs viral control

Q: How did the inhibition at 1 µM [1] turn out when `CN(CCN1CCCC1)c1ccc(C(F)(F)F)c(CN2CCN(C(c3ccc(Cl)cc3)c3ccc(Cl)cc3)CC2)c1` [Compound 63, 3-((4-(bis(4-chlorophenyl)methyl)piperazin-1-yl)methyl)-N-methyl-N-(2-(pyrrolidin-1-yl)ethyl)-4-(trifluoromethyl)aniline] was run?
A: > 75%

Q: Which inhibition at 1 µM (Huh7.5, 96 h) does the source give for `CN(CCN1CC1)c1ccc(C(F)(F)F)c(CN2CCN(C(c3ccc(Cl)cc3)c3ccc(Cl)cc3)CC2)c1` [Compound 64, N-(2-(aziridin-1-yl)ethyl)-3-((4-(bis(4-chlorophenyl)methyl)piperazin-1-yl)methyl)-N-methyl-4-(trifluoromethyl)aniline] here?
A: > 75%

Q: Which inhibition at 1 µM [1] does the source give for `CCN1CCCN(c2ccc(C(F)(F)F)c(CN3CCN(C(c4ccccn4)c4ccccn4)CC3)c2)CC1` [Compound 65, 1-(3-((4-(di(pyridin-2-yl)methyl)piperazin-1-yl)methyl)-4-(trifluoromethyl)phenyl)-4-ethyl-1,4-diazepane] here?
A: 50 to 75%

Q: `CN(C)CCN(C)c1ccc(C(F)(F)F)c(CN2CCN(C(c3ccc(F)cc3)c3ccc(F)cc3)CC2)c1` [Compound 66, N^1-(3-((4-(bis(4-fluorophenyl)methyl)piperazin-1-yl)methyl)-4-(trifluoromethyl)phenyl)-N^1,N^2,N^2-trimethylethan-1,2-diamine] was tested. Which inhibition at 1 µM [1] did it give?
A: > 75%

Q: How did the inhibition at 1 µM [1] turn out when `CN(C)C1CCCN(c2ccc(C(F)(F)F)c(CN3CCN(C(c4ccc(Cl)cc4)c4ccc(Cl)cc4)CC3)c2)C1` (stereo not shown) [Compound 67, 1-(3-((4-(bis(4-chlorophenyl)methyl)piperazin-1-yl)methyl)-4-(trifluoromethyl)phenyl)-N,N-dimethylpiperidin-3-amine] was run?
A: > 75%

Q: How did the inhibition at 1 µM [1] turn out when `CN1CCN(c2ccc(C(F)(F)F)c(CN3CCN(C(c4ccc(Br)cc4)c4ccc(Br)cc4)CC3)c2)CC1` [Compound 68, 1-(bis(4-bromophenyl)methyl)-4-(5-(4-methylpiperazin-1-yl)-2-(trifluoromethyl)benzyl)piperazine] was run?
A: > 75%

Q: For `CN(C)C1CCN(c2ccc(C(F)(F)F)c(CN3CCN(C(c4ccc(F)cc4)c4ccc(F)cc4)CC3)c2)CC1` [Compound 69, 1-(3-((4-(bis(4-fluorophenyl)methyl)piperazin-1-yl)methyl)-4-(trifluoromethyl)phenyl)-N,N-dimethylpiperidin-4-amine], which inhibition at 1 µM [1] is on record?
A: > 75%

Q: `CCCN(C)CCN(C)c1ccc(C(F)(F)F)c(CN2CCN(C(c3ccc(Cl)cc3)c3ccc(Cl)cc3)CC2)c1` [Compound 70, N^1-(3-((4-(bis(4-chlorophenyl)methyl)piperazin-1-yl)methyl)-4-(trifluoromethyl)phenyl)-N^1,N^2-dimethyl-N^2-propylethan-1,2-diamine] was tested. Which inhibition at 1 µM [1] did it give?
A: > 75%

Q: How did the inhibition at 1 µM [1] turn out when `CN(C)CCN(C)CCN(C)c1ccc(C(F)(F)F)c(CN2CCN(C(c3ccc(F)cc3)c3ccc(F)cc3)CC2)c1` [Compound 71, N^1-(3-((4-(bis(4-fluorophenyl)methyl)piperazin-1-yl)methyl)-4-(trifluoromethyl)phenyl)-N^2-(2-(dimethylamino)ethyl)-N^1,N^2-dimethylethan-1,2-diamine] was run?
A: > 75%

Q: `CN(C)CCN(C)c1ccc(C(F)(F)F)c(CN2CCC(C(c3ccc(Cl)cc3)c3ccc(Cl)cc3)CC2)c1` [Compound 72, N^1-(3-((4-(bis(4-chlorophenyl)methyl)piperidin-1-yl)methyl)-4-(trifluoromethyl)phenyl)-N^1,N^2,N^2-trimethylethan-1,2-diamine] was tested. Which inhibition at 1 µM [1] did it give?
A: > 75%

Q: How did the inhibition at 1 µM [1] turn out when `CN(C)CCN(C)c1ccc(C(F)(F)F)c(CN2CCC(C(c3ccc(Br)cc3)c3ccc(Br)cc3)CC2)c1` [Compound 73, N^1-(3-((4-(bis(4-bromophenyl)methyl)piperidin-1-yl)methyl)-4-(trifluoromethyl)phenyl)-N^1,N^2,N^2-trimethylethan-1,2-diamine] was run?
A: > 75%

Q: How did the inhibition at 1 µM [1] turn out when `CN(C)CCN(C)c1ccc(C#N)c(CN2CCN(C(c3ccc(Cl)cc3)c3ccc(Cl)cc3)CC2)c1` [Compound 74, 2-((4-(bis(4-chlorophenyl)methyl)piperazin-1-yl)methyl)-4-((2-(dimethylamino)ethyl)(methyl)amino)benzonitrile] was run?
A: > 75%

Q: With `COc1ccc(C(c2ccc(OC)cc2)N2CCN(Cc3cc(N4CCCN(C)CC4)ccc3C#N)CC2)cc1` [Compound 75, 2-((4-(bis(4-methoxyphenyl)methyl)piperazin-1-yl)methyl)-4-(4-methyl-1,4-diazepan-1-yl)benzonitrile] as the compound, how does the inhibition at 1 µM [1] read?
A: > 75%

Q: `CN1CCCN(c2ccc(C#N)c(CN3CCN(C(c4ccc(F)cc4)c4ccc(F)cc4)CC3)c2)CC1` [Compound 76, 2-((4-(bis(4-fluorophenyl)methyl)piperazin-1-yl)methyl)-4-(4-methyl-1,4-diazepan-1-yl)benzonitrile] was tested. Which inhibition at 1 µM [1] did it give?
A: > 75%

Q: For `CN1CCCN(c2ccc(C#N)c(CN3CCN(C(c4ccc(Cl)cc4)c4ccc(Cl)cc4)CC3)c2)CC1` [Compound 77, 2-((4-(bis(4-chlorophenyl)methyl)piperazin-1-yl)methyl)-4-(4-methyl-1,4-diazepan-1-yl)benzonitrile], which inhibition at 1 µM [1] is on record?
A: > 75%

Q: For `CN(CCn1ccnc1)c1ccc(C#N)c(CN2CCN(C(c3ccc(Cl)cc3)c3ccc(Cl)cc3)CC2)c1` [Compound 78, 4-((2-(1H-imidazol-1-yl)ethyl)(methyl)amino)-2-((4-(bis(4-chlorophenyl)methyl)piperazin-1-yl)methyl)benzonitrile], which inhibition at 1 µM [1] is on record?
A: > 75%

Q: With `CN(C)CCN(C)c1ccc(C#N)c(CN2CCN(C(c3ccncc3)c3ccncc3)CC2)c1` [Compound 79, 2-((4-(di(pyridin-4-yl)methyl)piperazin-1-yl)methyl)-4-((2-(dimethylamino)ethyl)(methyl)amino)benzonitrile] as the compound, how does the inhibition at 1 µM [1] read?
A: 50 to 75%

Q: `CN1CCN(c2ccc(C#N)c(CN3CCN(C(c4ccc(Cl)cc4)c4ccc(Cl)cc4)CC3)c2)CC1` [Compound 80, 2-((4-(bis(4-chlorophenyl)methyl)piperazin-1-yl)methyl)-4-(4-methylpiperazin-1-yl)benzonitrile] was tested. Which inhibition at 1 µM [1] did it give?
A: > 75%

Q: With `CC(C)c1ccc(C(c2ccc(C(C)C)cc2)N2CCN(Cc3cc(N(C)CCN(C)C)ccc3C#N)CC2)cc1` [Compound 81, 2-((4-(bis(4-isopropylphenyl)methyl)piperazin-1-yl)methyl)-4-((2-(dimethylamino)ethyl)(methyl)amino)benzonitrile] as the compound, how does the inhibition at 1 µM [1] read?
A: > 75%

Q: `CN(C)CCN(C)c1ccc(C#N)c(CN2CCN(C(c3ccc(C(C)(C)C)cc3)c3ccc(C(C)(C)C)cc3)CC2)c1` [Compound 82, 2-((4-(bis(4-tert-butylphenyl)methyl)piperazin-1-yl)methyl)-4-((2-(dimethylamino)ethyl)(methyl)amino)benzonitrile] was tested. Which inhibition at 1 µM [1] did it give?
A: > 75%

Q: `CN(C)CCN(C)c1ccc(C#N)c(CN2CCN(C(c3ccc(Br)cc3)c3ccc(Br)cc3)CC2)c1` [Compound 83, 2-((4-(bis(4-bromophenyl)methyl)piperazin-1-yl)methyl)-4-((2-(dimethylamino)ethyl)(methyl)amino)benzonitrile] was tested. Which inhibition at 1 µM [1] did it give?
A: > 75%

Q: How did the inhibition at 1 µM [1] turn out when `CN(C)CCN(C)c1ccc(C#N)c(CN2CCN(C(c3ccc(C4CC4)cc3)c3ccc(C4CC4)cc3)CC2)c1` [Compound 84, 2-((4-(bis(4-cyclopropylphenyl)methyl)piperazin-1-yl)methyl)-4-((2-(dimethylamino)ethyl)(methyl)amino)benzonitrile] was run?
A: > 75%
